This is an account of results in ChEMBL document CHEMBL1144170, “Syntheses and structure-activity relationships of novel, potent, and selective trans-2-[3-oxospiro[isobenzofuran-1(3H),1'-cyclohexan]-4'-yl]benzimidazole NPY Y5 receptor antagonists” (Bioorg Med Chem Lett, 2008).

In brackets after ≈: the same amount, converted by molar mass.

Broadly, the IC50 is the midpoint of a concentration-inhibition curve. For orientation: solubility means the dissolved amount per volume that the medium holds. A low value points to little dissolved substance.

The target in series [1] is T1, Neuropeptide Y receptor type 5 (Homo sapiens, UniProt Q15761).
T1 sequence (Q15761 whole entry): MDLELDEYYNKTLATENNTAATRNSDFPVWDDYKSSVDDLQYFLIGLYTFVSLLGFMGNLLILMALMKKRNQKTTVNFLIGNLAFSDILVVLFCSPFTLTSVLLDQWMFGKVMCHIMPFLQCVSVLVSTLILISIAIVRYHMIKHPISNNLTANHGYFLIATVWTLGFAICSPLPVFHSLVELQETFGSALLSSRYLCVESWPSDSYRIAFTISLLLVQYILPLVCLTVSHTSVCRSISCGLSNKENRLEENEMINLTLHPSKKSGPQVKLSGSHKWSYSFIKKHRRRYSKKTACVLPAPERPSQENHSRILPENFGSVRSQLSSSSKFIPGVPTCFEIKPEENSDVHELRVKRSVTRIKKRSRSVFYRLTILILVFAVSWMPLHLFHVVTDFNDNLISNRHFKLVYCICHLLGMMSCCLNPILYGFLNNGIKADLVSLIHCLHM
The series can be described thus: Displacement of [125I]PYY from human recombinant NPYY5 receptor expressed in mouse LMtk cells. It is filed as cell-based. For orientation: Loss of bound radioactivity is the signal in a displacement assay; it reports binding, not function.

A short description of series [2]: Plasma concentration in rat plasma at 10 mg/kg, po after 4 hrs. Type of series: ADME, organism-based. More on the design: dose 10 mg/kg, route oral. To be noted: read-out: Drug uptake.
Series [3] in a line: Ratio of drug level in brain to plasma in rat at 10 mg/kg, po after 2 hrs. It is filed as ADME, organism-based. More on the design: dose 10 mg/kg, route oral.
The nature of series [4]: Solubility in 0.2 M phosphate buffer at pH 6.8. It is filed as physicochemical.
A short description of series [5]: Selectivity for human NPYY5 receptor over NPYY4 receptor.
Series [6] deals with T2, Neuropeptide Y receptor type 2 (Homo sapiens, UniProt P49146).
T2 sequence (P49146 whole entry): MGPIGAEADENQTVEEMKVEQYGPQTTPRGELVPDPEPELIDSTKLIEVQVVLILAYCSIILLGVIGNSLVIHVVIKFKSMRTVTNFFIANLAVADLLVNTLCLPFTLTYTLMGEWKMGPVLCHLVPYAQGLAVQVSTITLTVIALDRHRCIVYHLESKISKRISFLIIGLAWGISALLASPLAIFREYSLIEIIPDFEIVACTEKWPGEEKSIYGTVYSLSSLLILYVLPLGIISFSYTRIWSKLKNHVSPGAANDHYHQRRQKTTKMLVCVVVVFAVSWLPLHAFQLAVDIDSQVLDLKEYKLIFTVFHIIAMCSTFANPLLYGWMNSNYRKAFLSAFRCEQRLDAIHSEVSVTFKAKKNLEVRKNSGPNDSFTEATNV
Put plainly: Inhibition of NPYY2 receptor.

For series [7], the target named is T3, Neuropeptide Y receptor type 1 (Homo sapiens, UniProt P25929).
T3 sequence (P25929 whole entry): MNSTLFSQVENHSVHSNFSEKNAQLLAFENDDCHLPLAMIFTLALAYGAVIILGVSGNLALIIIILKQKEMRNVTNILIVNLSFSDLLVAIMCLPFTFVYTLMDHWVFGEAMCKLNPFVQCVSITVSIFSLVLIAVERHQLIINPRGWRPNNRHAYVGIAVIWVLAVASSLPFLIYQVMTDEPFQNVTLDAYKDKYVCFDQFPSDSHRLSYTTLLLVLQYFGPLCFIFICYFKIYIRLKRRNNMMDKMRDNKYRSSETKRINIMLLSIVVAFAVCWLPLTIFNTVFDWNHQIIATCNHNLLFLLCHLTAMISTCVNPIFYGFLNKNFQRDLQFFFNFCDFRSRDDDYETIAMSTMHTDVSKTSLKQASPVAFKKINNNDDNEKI
Put plainly: Inhibition of NPYY1 receptor.

The nature of series [8]: Selectivity for human NPYY5 receptor over NPYY1 receptor.
The target of series [9] is T1, Neuropeptide Y receptor type 5. Put plainly: Antagonist activity at human recombinant NPYY5 receptor expressed in mouse LMtk cells assessed as inhibition of NPY-induced calcium increase. Type of series: functional, cell-based.
Series [10] concerns the target Neuropeptide Y receptor type 4 (Homo sapiens, UniProt P50391). The series can be described thus: Inhibition of NPYY4 receptor.
Series [11] is described as follows: Selectivity for human NPYY5 receptor over NPYY2 receptor.
Series [12] is described as follows: Plasma concentration in rat plasma at 10 mg/kg, po after 2 hrs. To be noted: read-out: Drug uptake. It is filed as ADME, organism-based. Details: dose 10 mg/kg, route oral.
Another series relates to Brain. Put plainly: Drug level in rat brain at 2.7 mg/kg, iv after 10 mins. Type of series: ADME, organism-based. Details: dose 2.7 mg/kg, route intravenous. To be noted: in vivo.
Series [13] can be described thus: Ratio of drug level in brain to plasma at 2.7 mg/kg, iv after 10 mins. Details: dose 2.7 mg/kg, route intravenous. The conditions noted are these: rat, read-out: BPR. Type of series: ADME, organism-based.
A short description of series [14]: Plasma concentration in rat plasma at 2.7 mg/kg, iv after 10 mins. Type of series: ADME, organism-based. Details: dose 2.7 mg/kg, route intravenous. The conditions noted are these: read-out: Drug uptake.

Chain of Neuropeptide Y receptor type 4 (P50391 whole entry): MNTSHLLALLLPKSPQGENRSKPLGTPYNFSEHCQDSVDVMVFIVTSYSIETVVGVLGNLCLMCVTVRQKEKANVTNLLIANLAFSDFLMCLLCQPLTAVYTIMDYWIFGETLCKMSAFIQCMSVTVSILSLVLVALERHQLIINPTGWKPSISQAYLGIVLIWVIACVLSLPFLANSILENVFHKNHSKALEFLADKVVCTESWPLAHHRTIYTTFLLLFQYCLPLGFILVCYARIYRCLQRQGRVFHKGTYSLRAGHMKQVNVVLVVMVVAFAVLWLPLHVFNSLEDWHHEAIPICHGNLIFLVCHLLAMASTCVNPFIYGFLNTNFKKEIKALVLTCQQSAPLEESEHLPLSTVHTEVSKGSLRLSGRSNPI

Turning to `COC(=O)c1cc2[nH]c([C@H]3CC[C@@]4(CC3)OC(=O)c3ccccc34)nc2cc1Cl`, the half-inhibitory concentration (IC50) in series [1] amounted to 2.2 nM.
Still for that read-out and setting: the result for `O=C1O[C@]2(CC[C@H](c3nc4cc(Cl)c(-c5ccccc5)cc4[nH]3)CC2)c2ccccc21` reads 2.2 nM; that for `Cn1c2cc(Cl)c(Cl)cc2nc1[C@H]1CC[C@@]2(CC1)OC(=O)c1ccccc12`, above 1000 nM; that for `COC(=O)c1ccc2[nH]c([C@H]3CC[C@@]4(CC3)OC(=O)c3ccccc34)nc2c1Cl`, 4.5 nM.
With `O=C1O[C@]2(CC[C@H](c3nc4cc(-c5noc(C(F)(F)F)n5)ccc4[nH]3)CC2)c2ccccc21`, the IC50 in [1] turned out to be 2.1 nM.
Consider `O=C1O[C@]2(CC[C@H](c3nc4ccc(-c5ccccc5)cc4[nH]3)CC2)c2ccccc21`, for which the IC50 in series [1] turned out to be 2.3 nM.
On the same count and under the same terms, the result for `O=C1O[C@]2(CC[C@H](c3nc4ccc(-c5ccc(F)cc5)cc4[nH]3)CC2)c2ccccc21` reads 1.7 nM; that for `O=C(c1ccccc1)c1ccc2[nH]c([C@H]3CC[C@@]4(CC3)OC(=O)c3ccccc34)nc2c1`, 2.4 nM.
Still for that read-out and setting: the same measure for `N#Cc1ccc2[nH]c([C@H]3CC[C@@]4(CC3)OC(=O)c3ccccc34)nc2c1`: 20 nM; for `O=C1O[C@]2(CC[C@H](c3nc4cc(-c5ccccn5)ccc4[nH]3)CC2)c2ccccc21`: 2.4 nM; for `O=C1O[C@]2(CC[C@H](c3nc4cc(C(F)(F)F)ccc4[nH]3)CC2)c2ccccc21`: 47 nM.
`O=C1O[C@]2(CC[C@H](c3nc4cc(-c5cccnc5)ccc4[nH]3)CC2)c2ccccc21`: the IC50 in series [1] stood at 3.1 nM.
Turning to `Cn1nnc(-c2ccc3[nH]c([C@H]4CC[C@@]5(CC4)OC(=O)c4ccccc45)nc3c2)n1`, the concentration at 4 h in [2] was determined as 990 nM. The IC50 is 5.9 nM in series [1]; above 10000 nM in series [6]; above 10000 nM in series [7]; 7.2 nM in series [9]; above 10000 nM in [10]. In addition, the Kp at 2 h in series [3] was 0.12. The compound further yielded a solubility in [4] of 5.9 µg/mL (≈ 14.7 µM). Further, the Selectivity ratio in [5], in series [8] and in series [11] was 1000 in each case. For the same compound, in [12], the concentration at 2 h turned out to be 3200 nM.
In the case of `O=C1O[C@]2(CC[C@H](c3nc4cc(-c5nnco5)ccc4[nH]3)CC2)c2ccccc21`, the concentration for half-maximal inhibition (IC50) in [1] came to 15 nM.
Regarding `O=C1O[C@]2(CC[C@H](c3nc4cc(Cl)c(Cl)cc4[nH]3)CC2)c2ccccc21`, the IC50 in series [1] is 8 nM.
In the case of `COC(=O)c1cc2[nH]c([C@H]3CC[C@]4(CC3)OC(=O)c3ccccc34)nc2cc1Cl`, the IC50 in series [1] is 1000 nM.
In the case of `Cc1nnc(-c2ccc3[nH]c([C@H]4CC[C@@]5(CC4)OC(=O)c4ccccc45)nc3c2)o1`, in series [2], the concentration at 4 h turned out to be 850 nM. Further, the IC50 is 3.3 nM in [1]; above 10000 nM in [6]; above 10000 nM in [7]; 5.5 nM in series [9]; above 10000 nM in series [10]. In addition, the Kp at 2 h in series [3] is 0.05. This compound also came in with a solubility in series [4] of 0.94 µg/mL (≈ 2.35 µM). Further, the Selectivity ratio in series [5], in series [8] and in [11] was 1000 each time. Also, the concentration at 2 h in [12] was determined as 1400 nM.
Take `O=C1O[C@]2(CC[C@H](c3nc4cc(Cl)ccc4[nH]3)CC2)c2ccccc21`: the IC50 in [1] worked out at 39 nM.
As for `O=C1O[C@]2(CC[C@H](c3nc4cc(Br)ccc4[nH]3)CC2)c2ccccc21`, the IC50 in series [1] is 45 nM.
With `COC(=O)c1ccc2[nH]c([C@H]3CC[C@@]4(CC3)OC(=O)c3ccccc34)nc2c1`, the Drug uptake in the series on Brain was 1.7 nmol/g. The half-inhibitory concentration (IC50) in series [1] worked out at 7.7 nM. In addition, the Kp at 10 min in series [13] was found to be 0.55. Besides, the solubility in [4] came to 0.6 µg/mL (≈ 1.59 µM). For the same compound, the concentration at 10 min in [14] amounted to 3100 nM.
Turning to `Cc1nnc(-c2ccc3[nH]c([C@H]4CC[C@]5(CC4)OC(=O)c4ccccc45)nc3c2)o1`, the concentration for half-maximal inhibition (IC50) in series [1] amounted to 1000 nM.
Regarding `O=C1O[C@]2(CC[C@H](c3nc4cc(Cl)c(C(F)(F)F)cc4[nH]3)CC2)c2ccccc21`, the IC50 in series [1] amounted to 2.6 nM. In series [4], this compound gave a solubility below 0.01 µg/mL.
Turning to `O=C1O[C@]2(CC[C@H](c3nc4ccccc4[nH]3)CC2)c2ccccc21`, the IC50 in series [1] stood at 91 nM.
Consider `Cc1nc(-c2ccc3[nH]c([C@H]4CC[C@@]5(CC4)OC(=O)c4ccccc45)nc3c2)no1`, for which the IC50 in [1] was 5.1 nM; in series [6] it was above 10000 nM; in series [7], above 10000 nM; in [9], 7 nM; in series [10], above 10000 nM. Further, the Selectivity ratio in series [5], in series [8] and in series [11] was 1000 in each case. Moreover, the concentration at 2 h in [12] came out at 400 nM.
